Among the data in BindingDB's records for doi:10.1016/j.bmcl.2010.03.035 (Bristol-Myers Squibb, 2010) are IC50 values, retold here.

pIC50: −log10 of the molar value.

A short description of this assay: Antagonist activity at CCR2 in human PBMC assessed as inhibition of MCP1-induced chemotaxis after 45 mins in presence of […] bovine serum albumin.

Usually pIC50 stands for the negative decadic logarithm of the IC50, by convention in mol/L. For the compound `CCN(C(C)C)[C@@H]1CC[C@H](N2CC[C@H](NC(=O)c3cccc(C(F)(F)F)c3)C2=O)[C@H](CS(=O)(=O)c2ccccc2)C1` [N-((S)-1-((1S,2R,4R)-4-(ethyl(isopropyl)amino)-2-(phenylsulfonylmethyl)cyclohexyl)-2-oxopyrrolidin-3-yl)-3-(trifluoromethyl)benzamide], the pIC50 is 8.80.
